NNC(=O)c1ccncc1
solubility (mole fraction)
Details | 301 K | 303 K | 308 K | 311 K | 313 K
in acetone | 0.00946 | 0.0104 | 0.0136 | 0.016 | 0.0187
in ethanol | 0.00545 | 0.00579 | 0.00717 | 0.00816 | 0.00887
in ethyl acetate | 0.00159 | 0.00172 | 0.00206 | 0.00225 | 0.00251
in methanol | 0.0107 | 0.0114 | 0.0137 | 0.0154 | 0.0163

From BigSolDB 2.1
